From US20230027295A1, “FXIA INHIBITORS AND PREPARATION METHOD THEREFOR AND PHARMACEUTICAL USE THEREOF” (Shenzhen Salubris Pharmaceuticals Co., Ltd., priority 2019, published 2023)
pIC50: −log10 of the molar value.

Experiments:
[1] = Beagle dog pharmacokinetics; type: in vivo; details: for AUC / Cmax / Tmax / clearance / half-life / Vd: male, plasma; for Vd: read-out: Vss
Description: Example 53: Investigation of the Pharmacokinetic Characteristics of the Compounds of the Present Invention
SD rats: male, 180-250 g, purchased from Guangdong Medical Laboratory Animal Center. Cynomolgus monkey: male, 4-6 kg, purchased from Guangzhou Chunsheng Biological Research Institute Co., Ltd. Beagle dog: male, 8-12 kg, developed in Kanglong Chemical (Ningbo) New Drug Technology Co., Ltd.
Reagents: DMSO (dimethyl sulfoxide), PEG-400 (polyethylene glycol 400), normal brine, heparin, acetonitrile, formic acid, and propranolol (internal standard) are commercially available.
Instrumentation: Thermo Fisher Scientific LC-MS (U300 UPLC, TSQ […] ULTRA triple quadrupole mass spectrometer).
The compound was weighed and dissolved in DMSO-PEG-400-physiological brine (5:60:35, v/v/v) system. After the rats/monkeys were administered intravenously or by gavage, 200 μL of venous blood was collected at 5 min (not collected when administered by gavage), 15 min, 30 min, 1 h, 2 h, 4 h, 6 h, 8 h, and 24 h in heparinized EP tubes, centrifuged at 12000 rpm for 2 min, and the plasma was frozen at −80° C. for testing. A certain amount of the test substance was precisely weighed and dissolved in DMSO to 1 mg/mL, which was used as a stock solution. An appropriate amount of compound stock solution was accurately pipetted and diluted with acetonitrile to prepare a standard series of solutions. 20 μL of each of the above standard series solutions were accurately pipetted, added with 180 μL of blank plasma, vortexed and mixed to prepare plasma samples equivalent to plasma concentrations of 1, 3, 10, 30, 100, 300, 1000, 3000 and 5000 ng/mL. Two-sample analysis was performed for each concentration to establish a standard curve. 20 μL of plasma was taken out, added with 200 μL of internal standard propranolol (5 ng/mL) in acetonitrile, vortexed and mixed. It was centrifuged at 4000 rpm for 5 min, and the supernatant was collected for LC-MS analysis. LC-MS detection conditions were as follows:
Chromatographic column: Thermo Scientific […] GOLD C-18 UPLC column, 100*2.1 mm, 1.9 μm.
Mobile phase: water (0.1% formic acid)-acetonitrile for gradient elution according to the table below.
After blood drug concentrations being detected by LC-MS, WinNonlin 6.1 software was used to calculate pharmacokinetic parameters by non-compartmental model method.

Human Factor VIIa = biological target: T1, Human Factor VIIa (Homo sapiens, UniProt P08709); assay: Selectivity to coagulation factors: hFVIIa (substrate S-2288); type: biochemical
T1 construct: hFVIIa: Human Factor VIIa: hFVIIa 4591L; purchased hFVIIa 4591L
T1 sequence (P08709 213-466 limits assumed): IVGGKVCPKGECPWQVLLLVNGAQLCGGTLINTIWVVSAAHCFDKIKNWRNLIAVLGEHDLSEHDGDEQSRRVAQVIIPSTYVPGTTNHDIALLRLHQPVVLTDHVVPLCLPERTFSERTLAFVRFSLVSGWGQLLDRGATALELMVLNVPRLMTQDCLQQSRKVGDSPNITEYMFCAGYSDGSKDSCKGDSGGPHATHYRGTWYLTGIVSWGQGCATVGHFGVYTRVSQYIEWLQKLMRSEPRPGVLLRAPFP
T1 sequence (P08709 61-212 partner limits assumed): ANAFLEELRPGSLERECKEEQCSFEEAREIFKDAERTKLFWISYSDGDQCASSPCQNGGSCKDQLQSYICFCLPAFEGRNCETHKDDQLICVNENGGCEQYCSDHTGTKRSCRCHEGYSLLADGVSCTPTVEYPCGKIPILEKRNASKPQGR
Method: Example 52: Investigation of the Selectivity of the Compounds of the Present Invention to Coagulation Factors
Enzyme: hFXa: Human Factor Xa: 71nkat. hFIIa: HT5146L. hFVIIa: Human Factor VIIa: hFVIIa 4591L. kallikrein: LOT180223.
10 mM test compound dissolved in 100% DMSO was diluted with 100% DMSO to 1000, 200, 40, 8, 1.6 μM. 98 μL of enzyme solution was added to each well of a 96-well plate, while 98 μL of buffer was added to the blank wells. 2 μL of compounds of different concentrations were added, while the blank and control wells were added with DMSO instead. They were mixed with a shaker, and incubated at 37° C. for 20 min.
The concentrations of hFXa and S-2222™ were FXa (1:28) and 800 μmol/L, respectively. The concentrations of hFIIa and S-2238™ were hFIIa (0.06 U/ml) and 500 μmol/L, respectively. The concentrations of hFVIIa and S-2288™ were hFVIIa (80 nM) and 1600 μmol/L, respectively. The concentrations of kallikrein and substrate were kallikrein (20 nM) and 1600 μmol/L, respectively.
Finally, 100 μL substrate was added to each well, and its absorbance was measured at 405 nm.

human plasma = assay: Anticoagulant effect on human plasma in vitro (APTT determination); type: biochemical; details: for aPTT EC1.5×: concentration giving APTT of 1.5× blank control; for aPTT EC2×: concentration giving APTT of 2× blank control
Method: Example 51: Determination of the Anticoagulant Effect of the Compounds of the Present Invention on Human Plasma In Vitro
Plasma: Human blood was collected in a vacuum blood collection tube containing 3.2% sodium citrate (volume ratio 1:9), centrifuged at 3000 rpm for 10 min at room temperature, and the plasma was collected, divided into EP tubes, and stored at −80° C.
Reagents: APTT assay kit (Activated partial thromboplastin time assay kit, mindray), calcium chloride solution.
Instrument: coagulation meter (mindray, C2000-A)
The frozen human plasma in aliquots was thawed at room temperature and mixed well. 10 mM test compound dissolved in 100% DMSO was diluted with 100% DMSO to 1500, 750, 375, 187.5, 93.75, 46.88, 23.44, 11.72 μM. 98 μL of human plasma was added to a 1.5 mL EP tube, then 2 μL of compounds of different concentrations were added, and 2 μL of 100% DMSO was added for the blank group. They were incubated under a water bath at 37° C. for 10 min, and the samples were placed in the corresponding position of the coagulation analyzer to conduct APTT determination of the compounds.
Curve fitting was performed with GraphPad Prism software, and EC1.5× and EC2× values were calculated respectively, i.e., the concentrations of the compounds corresponding to the APTT of 1.5× and 2× blank control group.

COc1nn([C@@H](Cc2ccccc2)C(=O)Nc2ccc(C(=O)O)cc2)c(=O)cc1-c1cc(Cl)ccc1C(C)=O [Example 19, (S)-4-(2-(4-(2-acetyl-5-chlorophenyl)-3-methoxy-6-oxopyridazin-1(6H)-yl)-3-phenylpropanamido)benzoic acid]
F ([1]; ig): 65.5%
AUC ([1]; iv): 1410 ng·h/mL
Cmax ([1]; iv): 2580 ng/mL
Tmax ([1]; iv): 0.083 h
clearance ([1]; iv): 11.8 mL/min/kg
half-life ([1]; iv): 4.2 h
Vd ([1]; iv): 0.8 L/kg
AUC ([1]; po, ig): 9230 ng·h/mL
Cmax ([1]; po, ig): 2320 ng/mL
Tmax ([1]; po, ig): 1.25 h
half-life ([1]; po, ig): 3.6 h
pIC50 (Human Factor VIIa): < 4.00
aPTT EC1.5× (human plasma): 0.641 µM
aPTT EC2× (human plasma): 2.817 µM

CCC(=O)c1ccc(Cl)cc1-c1cc(=O)n([C@@H](Cc2ccccc2)C(=O)Nc2ccc(C(=O)O)cc2)nc1OC [Example 32]
F ([1]; ig): 49.6%
AUC ([1]; iv): 756 ng·h/mL
Cmax ([1]; iv): 2190 ng/mL
Tmax ([1]; iv): 0.083 h
clearance ([1]; iv): 22.7 mL/min/kg
half-life ([1]; iv): 7.77 h
Vd ([1]; iv): 2.64 L/kg
AUC ([1]; po, ig): 3770 ng·h/mL
Cmax ([1]; po, ig): 1600 ng/mL
Tmax ([1]; po, ig): 0.25 h
half-life ([1]; po, ig): 4.51 h
pIC50 (Human Factor VIIa): < 4.00
aPTT EC1.5× (human plasma): 0.483 µM
aPTT EC2× (human plasma): 1.319 µM
